Reference: ChEMBL document CHEMBL5113400, “Design, synthesis, and biological evaluation of trizole-based heteroaromatic derivatives as Bcr-Abl kinase inhibitors” (Eur J Med Chem, 2022)
Each block holds one compound with its values, some of them ahead of it. The source made the active and inactive calls. No cut-off for these calls is given here.

Assays:
[1] = test system: BaF3; assay: Antiproliferative activity against mouse BaF3 cells expressing wild type Bcr-Abl assessed as inhibition of cell growth incubated for 72 hrs by CellTiter-Glo luminescent assay; type: functional, cell-based; conditions: BaF3, 72 h
[2] = target: T1, Bcr/Abl fusion protein (Homo sapiens) (UniProt P00519+P11274); assay: Inhibition of Bcr-Abl phosphorylation at Tyr245 residue in human K562 cells expressing wild type Bcr-Abl at 5 to 15 uM measured after 48 hrs by Western blot analysis; type: cell-based; conditions: dose 5-15 µM
[3] = test system: K562; assay: Induction of apoptosis in human K562 cells assessed as viable cells at 10 uM incubated for 48 hrs by Annexin V-FITC/PI staining based flow cytometry analysis (Rvb= 80.56%); type: functional; conditions: read-out: Activity
[4] = test system: K562; assay: Induction of apoptosis in human K562 cells assessed as viable cells at 1 uM incubated for 48 hrs by Annexin V-FITC/PI staining based flow cytometry analysis (Rvb= 80.56%); type: functional; conditions: read-out: Activity
[5] = target: Bcr/Abl fusion protein (Homo sapiens, UniProt P00519, T315I); assay: Inhibition of Bcr-Abl T315I mutant (unknown origin) incubated for 1 hr in presence of ATP by ADP-Glo kinase assay; type: protein assay
[6] = test system: K562; assay: Induction of apoptosis in human K562 cells assessed as early apoptotic cells at 1 uM incubated for 48 hrs by Annexin V-FITC/PI staining based flow cytometry analysis (Rvb= […]); type: functional
[7] = test system: BaF3; assay: Antiproliferative activity against mouse BaF3 cells expressing Bcr-Abl T315I mutant assessed as inhibition of cell growth at 30 uM incubated for 72 hrs by CellTiter-Glo luminescent assay; type: functional
[8] = test system: K562; assay: Induction of apoptosis in human K562 cells assessed as necrotic cells at 10 uM incubated for 48 hrs by Annexin V-FITC/PI staining based flow cytometry analysis (Rvb= 0.29%); type: functional
[9] = test system: BaF3; assay: Antiproliferative activity against mouse BaF3 cells expressing Bcr-Abl T315I mutant assessed as inhibition of cell growth incubated for 72 hrs by CellTiter-Glo luminescent assay; type: functional, cell-based; conditions: BaF3, 72 h
[10] = test system: K562; assay: Induction of apoptosis in human K562 cells assessed as late apoptotic cells at 1 uM incubated for 48 hrs by Annexin V-FITC/PI staining based flow cytometry analysis (Rvb= 2.89%); type: functional
[11] = target: Bcr/Abl fusion protein (Homo sapiens, UniProt P00519); assay: Inhibition of wild type Bcr-Abl (unknown origin) incubated for 1 hr in presence of ATP by ADP-Glo kinase assay; type: protein assay
[12] = test system: K562; assay: Induction of apoptosis in human K562 cells assessed as early apoptotic cells at 10 uM incubated for 48 hrs by Annexin V-FITC/PI staining based flow cytometry analysis (Rvb= […]); type: functional
[13] = test system: K562; assay: Induction of apoptosis in human K562 cells assessed as early apoptotic cells at 5 uM incubated for 48 hrs by Annexin V-FITC/PI staining based flow cytometry analysis (Rvb= […]); type: functional
[14] = test system: K562; assay: Antiproliferative activity against human K562 cells assessed as inhibition of cell growth incubated for 48 hrs by MTT assay; type: functional, cell-based; conditions: K562, 48 h
[15] = test system: K562; assay: Induction of apoptosis in human K562 cells assessed as viable cells at 5 uM incubated for 48 hrs by Annexin V-FITC/PI staining based flow cytometry analysis (Rvb= 80.56%); type: functional; conditions: read-out: Activity
[16] = test system: EA.hy 926; assay: Cytotoxicity against human EA.hy 926 cells assessed as inhibition of cell growth upto 100 uM incubated for 48 hrs by MTT assay; type: toxicity, cell-based; conditions: ea.hy 926, 48 h
[17] = target: T2, Signal transducer and activator of transcription 5A (Homo sapiens) (UniProt P42229); assay: Inhibition of STAT5 phosphorylation at Tyr694 residue in human K562 cells expressing wild type Bcr-Abl at 0.1 to 15 uM measured after 48 hrs by Western blot analysis; type: cell-based; conditions: dose 0.1-15 µM, DDE = dose-dependent effect
T2 sequence (whole entry): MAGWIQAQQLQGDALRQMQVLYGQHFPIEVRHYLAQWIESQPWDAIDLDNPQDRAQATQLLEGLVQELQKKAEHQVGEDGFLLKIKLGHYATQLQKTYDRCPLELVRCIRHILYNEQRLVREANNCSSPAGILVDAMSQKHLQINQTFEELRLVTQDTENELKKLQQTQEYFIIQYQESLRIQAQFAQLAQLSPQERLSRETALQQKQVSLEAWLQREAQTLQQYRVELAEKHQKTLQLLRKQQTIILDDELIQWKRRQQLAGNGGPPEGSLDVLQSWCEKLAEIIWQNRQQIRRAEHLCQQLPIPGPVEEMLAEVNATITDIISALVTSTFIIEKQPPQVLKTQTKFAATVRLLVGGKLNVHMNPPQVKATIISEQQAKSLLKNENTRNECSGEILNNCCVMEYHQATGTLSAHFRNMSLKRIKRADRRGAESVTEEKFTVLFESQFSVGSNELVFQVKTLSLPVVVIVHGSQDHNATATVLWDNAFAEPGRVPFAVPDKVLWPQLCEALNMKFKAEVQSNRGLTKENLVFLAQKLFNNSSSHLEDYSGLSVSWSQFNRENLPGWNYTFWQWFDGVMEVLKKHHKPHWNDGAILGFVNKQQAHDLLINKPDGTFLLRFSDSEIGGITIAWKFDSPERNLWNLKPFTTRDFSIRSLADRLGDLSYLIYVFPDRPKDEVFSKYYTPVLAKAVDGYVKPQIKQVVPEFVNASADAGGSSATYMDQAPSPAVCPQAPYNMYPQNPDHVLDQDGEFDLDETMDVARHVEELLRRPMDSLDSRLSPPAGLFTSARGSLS

[18] = test system: K562; assay: Induction of apoptosis in human K562 cells assessed as necrotic cells at 1 uM incubated for 48 hrs by Annexin V-FITC/PI staining based flow cytometry analysis (Rvb= 0.29%); type: functional
[19] = test system: K562; assay: Induction of cell cycle arrest in human K562 cells assessed as accumulation at S phase at 1 to 10 uM incubated for 48 hrs by PI staining based flow cytometry; type: functional; conditions: dose 1-10 µM
[20] = test system: K562/Adr; assay: Antiproliferative activity against human Adriamycin-resistant K562/Adr cells assessed as inhibition of cell growth incubated for 48 hrs by MTT assay; type: functional, cell-based
[21] = test system: K562; assay: Induction of apoptosis in human K562 cells assessed as late apoptotic cells at 10 uM incubated for 48 hrs by Annexin V-FITC/PI staining based flow cytometry analysis (Rvb= 2.89%); type: functional
[22] = test system: K562; assay: Induction of apoptosis in human K562 cells assessed as necrotic cells at 5 uM incubated for 48 hrs by Annexin V-FITC/PI staining based flow cytometry analysis (Rvb= 0.29%); type: functional
[23] = test system: K562; assay: Induction of apoptosis in human K562 cells assessed as late apoptotic cells at 5 uM incubated for 48 hrs by Annexin V-FITC/PI staining based flow cytometry analysis (Rvb= 2.89%); type: functional
[24] = test system: BaF3; assay: Antiproliferative activity against mouse BaF3 cells assessed as inhibition of cell growth incubated for 72 hrs by CellTiter-Glo luminescent assay; type: functional, cell-based; conditions: BaF3, 72 h
[25] = test system: K-562R; assay: Antiproliferative activity against human K-562R cells expressing Bcr-Abl T315I mutant assessed as inhibition of cell growth incubated for 48 hrs by MTT assay; type: functional, cell-based
[26] = test system: HEK293; assay: Cytotoxicity against human HEK293 cells assessed as inhibition of cell growth upto 100 uM incubated for 48 hrs by MTT assay; type: toxicity, cell-based; conditions: hek293, 48 h
[27] = test system: K562; assay: Induction of cell cycle arrest in human K562 cells assessed as reduction in G0/G1 phase at 1 to 10 uM incubated for 48 hrs by PI staining based flow cytometry; type: functional; conditions: dose 1-10 µM
[28] = test system: K562; assay: Induction of apoptosis in human K562 cells assessed as necrotic cells at 20 uM incubated for 48 hrs by Annexin V-FITC/PI staining based flow cytometry analysis (Rvb= 0.25%); type: functional
[29] = test system: K562; assay: Induction of apoptosis in human K562 cells assessed as viable cells at 20 uM incubated for 48 hrs by Annexin V-FITC/PI staining based flow cytometry analysis (Rvb= 83.0.5%); type: functional; conditions: read-out: Activity
[30] = test system: K562; assay: Induction of apoptosis in human K562 cells assessed as necrotic cells at 5 uM incubated for 48 hrs by Annexin V-FITC/PI staining based flow cytometry analysis (Rvb= 0.25%); type: functional
[31] = test system: K562; assay: Induction of apoptosis in human K562 cells assessed as viable cells at 5 uM incubated for 48 hrs by Annexin V-FITC/PI staining based flow cytometry analysis (Rvb= 83.0.5%); type: functional; conditions: read-out: Activity
[32] = test system: K562; assay: Induction of apoptosis in human K562 cells assessed as late apoptotic cells at 20 uM incubated for 48 hrs by Annexin V-FITC/PI staining based flow cytometry analysis (Rvb= 5.35%); type: functional
[33] = test system: K562; assay: Induction of apoptosis in human K562 cells assessed as early apoptotic cells at 5 uM incubated for 48 hrs by Annexin V-FITC/PI staining based flow cytometry analysis (Rvb= 11.35%); type: functional
[34] = test system: K562; assay: Induction of cell cycle arrest in human K562 cells assessed as accumulation at S phase at 5 to 20 uM incubated for 48 hrs by PI staining based flow cytometry (Rvb=49%); type: functional; conditions: dose 5-20 µM
[35] = target: T1, Bcr/Abl fusion protein (Homo sapiens); assay: Inhibition of Bcr-Abl phosphorylation at Tyr245 residue in human K562 cells expressing wild type Bcr-Abl at 0.1 to 15 uM measured after 48 hrs by Western blot analysis; type: cell-based; conditions: dose 0.1-15 µM, DDE = dose-dependent effect
[36] = test system: K562; assay: Induction of apoptosis in human K562 cells assessed as viable cells at 10 uM incubated for 48 hrs by Annexin V-FITC/PI staining based flow cytometry analysis (Rvb= 83.0.5%); type: functional; conditions: read-out: Activity
[37] = test system: K562; assay: Induction of apoptosis in human K562 cells assessed as late apoptotic cells at 10 uM incubated for 48 hrs by Annexin V-FITC/PI staining based flow cytometry analysis (Rvb= 5.35%); type: functional
[38] = test system: K562; assay: Induction of apoptosis in human K562 cells assessed as late apoptotic cells at 5 uM incubated for 48 hrs by Annexin V-FITC/PI staining based flow cytometry analysis (Rvb= 5.35%); type: functional
[39] = test system: K562; assay: Induction of apoptosis in human K562 cells assessed as necrotic cells at 10 uM incubated for 48 hrs by Annexin V-FITC/PI staining based flow cytometry analysis (Rvb= 0.25%); type: functional
[40] = test system: K562; assay: Induction of apoptosis in human K562 cells assessed as early apoptotic cells at 10 uM incubated for 48 hrs by Annexin V-FITC/PI staining based flow cytometry analysis (Rvb= 11.35%); type: functional
[41] = test system: K562; assay: Induction of apoptosis in human K562 cells assessed as early apoptotic cells at 20 uM incubated for 48 hrs by Annexin V-FITC/PI staining based flow cytometry analysis (Rvb= 11.35%); type: functional

IC50 [1]: 6.96 µM
inhibition [2]: Active
IC50 [5]: 0.111 µM
IC50 [9]: 4.13 µM
IC50 [11]: 0.00049 µM
IC50 [14]: 5.06 µM
inhibition [17]: Dde
IC50 [20]: 4.72 µM
IC50 [24]: > 20 µM
IC50 [25]: 13.3 µM
SMILES: CS(=O)(=O)Nc1ccc(-c2cn([C@@H]3CN[C@H](C(=O)Nc4ccc(Cl)c(C(F)(F)F)c4)C3)nn2)cn1
viability at 10 µM [3]: 71.8%
viability at 1 µM [4]: 79.3%
Activity [6]: 18.03%
inhibition at 30 µM [7]: 99.7%
Activity [8]: 0.28%
Activity [10]: 2.43%
Activity [12]: 23.79%
Activity [13]: 17.14%
viability at 5 µM [15]: 79.3%
Activity [16]: Non-Toxic
Activity [18]: 0.19%
Activity [19]: Active
Activity [21]: 4.11%
Activity [22]: 0.4%
Activity [23]: 3.19%
Activity [26]: Non-Toxic
Activity [27]: Active

IC50 [1]: 1.42 µM
IC50 [5]: 0.188 µM
IC50 [9]: 9.47 µM
IC50 [11]: 0.0015 µM
IC50 [14]: 5.2 µM
inhibition [35]: Dde
inhibition [17]: Dde
IC50 [20]: 9.57 µM
IC50 [24]: > 20 µM
IC50 [25]: 40.1 µM
SMILES: O=C(Nc1n[nH]c2cc(-c3cn([C@@H]4CN[C@H](C(=O)Nc5ccc(Cl)c(C(F)(F)F)c5)C4)nn3)ccc12)C1CC1
Activity [28]: 0.23%
viability at 20 µM [29]: 54.4%
inhibition at 30 µM [7]: 85.4%
Activity [30]: 0.22%
viability at 5 µM [31]: 76.7%
Activity [32]: 12.2%
Activity [33]: 14.34%
Activity [34]: 54.15%
viability at 10 µM [36]: 68.6%
Activity [16]: Non-Toxic
Activity [37]: 12.74%
Activity [38]: 8.75%
Activity [39]: 0.19%
Activity [40]: 18.48%
Activity [26]: Non-Toxic
Activity [41]: 33.16%
